Reference: patent publication US20090030033A1, “Novel Compounds 894” (AstraZeneca AB, priority 2007, published 2009)
Counter-ions that a name gives are not always drawn.

The molecules below were run against T1, human GlyT1b (Homo sapiens, UniProt P48067) (assay: [3H]Glycine Uptake Assay (SPA) in hGlyT1b/CHO cells). Conditions: compounds of Formula Ia, read at 2 h.
T1 construct: expressed in transfected cells
T1 sequence (P48067 1-652 isoform P48067-3): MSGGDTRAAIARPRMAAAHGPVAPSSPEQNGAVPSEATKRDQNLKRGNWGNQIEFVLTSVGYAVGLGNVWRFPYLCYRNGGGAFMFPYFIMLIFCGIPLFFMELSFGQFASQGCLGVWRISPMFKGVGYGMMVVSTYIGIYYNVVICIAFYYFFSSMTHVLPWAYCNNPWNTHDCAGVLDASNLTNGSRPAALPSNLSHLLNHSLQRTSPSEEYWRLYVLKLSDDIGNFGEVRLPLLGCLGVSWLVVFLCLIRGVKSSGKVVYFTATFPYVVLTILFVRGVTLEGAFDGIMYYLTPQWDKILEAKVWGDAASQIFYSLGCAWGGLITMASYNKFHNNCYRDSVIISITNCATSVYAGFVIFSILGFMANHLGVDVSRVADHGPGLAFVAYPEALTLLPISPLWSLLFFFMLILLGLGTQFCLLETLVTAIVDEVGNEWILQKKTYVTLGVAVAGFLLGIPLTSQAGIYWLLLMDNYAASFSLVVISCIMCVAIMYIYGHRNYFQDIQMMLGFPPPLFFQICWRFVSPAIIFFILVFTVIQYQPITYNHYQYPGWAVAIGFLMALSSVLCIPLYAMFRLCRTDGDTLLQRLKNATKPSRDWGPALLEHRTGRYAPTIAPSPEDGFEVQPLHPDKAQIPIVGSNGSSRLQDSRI
Type: cell-based
Description: The activity and usefulness of the compounds can be assessed in assays known to those skilled in the art. […] The potency was measured in the [3H]Glycine Uptake Assay substantially as described below.
[^3H]Glycine Uptake Assay
[^3H]Glycine: PerkinElmer (NET-004, [2-^3H]Glycine, 53.3 Ci/mmol, 1 mCi/mL)
Preparation of recombinant human GlyT1-CHO cells (hGlyT1-CHO). […] CHO-K1 cells (ATCC) were transfected with the recombinant vector containing GlyT1b using Lipofectamine 2000 (Invitrogen) and cultured in Ham's/F12 media supplemented with 10% fetal bovine serum, 2 mM L-glutamine at 37° C., 5% CO2, 90% humidity. Twenty-four hours after transfection, cells were diluted and switched to media containing 500 μg/ml hygromycin B. Antibiotic resistant cells were obtained after 21 days of culture in the presence of hygromycin B. Clonal stable cell lines were isolated by FACS single cell deposition into 96-well plates.
Cell culture: Recombinant hGlyT1-CHO cells were cultured in cell culture medium (Ham's/F12, containing 10% FBS, 2 mM L-glutamine and 500 μg/ml hygromycin B in 175 cm^2 flasks until near confluence prior to use in assay.
Cell suspension: Cell medium in a cell culture flask containing near confluent cells was removed and 5 ml of cell stripper was added to submerge all cells on the surface of the culture flask. Cell stripper was removed immediately and the flask incubated in a 37° C. incubator for ˜5 min. Cells were shaken loose and suspended in 5 ml of PBS. After splitting cells to initiate a new flask(s), the cells remaining were collected by centrifugation, counted, and resuspended in assay buffer to a density of ˜2 million/mL. The cell suspension was kept at room temperature before use.
SPA and isotope mixture: WGA PTV beads were suspended in assay buffer (2 mg/ml) containing 60 nM [^3H]Glycine and 20 μM unlabeled glycine and the suspension was kept at room temperature before assay.
Assay of glycine uptake: To the wells of an OptiPlate, 2 μl DMSO containing a test compound was spotted. This was followed by addition of 98 μl of cell suspension (˜1 million/ml final). After incubating cells with compound for ˜15 min, 100 μl of the SPA (200 μg/well final) and isotope mixture (30 nM isotope with 10 μM cold glycine, final) was added to initiate the glycine uptake. At 2 h, the plate was read on a TopCount to quantify SPA counts.

IC50 [nM] | SMILES
67.6 | Cc1c(C(=O)NC(c2ccccc2)C23CCC(CC2)CN3)cccc1C(F)(F)F (single isomer, unassigned) [N-(2-azabicyclo[2.2.2]octan-1-yl(phenyl)methyl)-2-methyl-3-(trifluoromethyl)benzamide]
455 | O=C(NC(c1ccccc1)C12CCC(CC1)CN2)c1cccc(C(F)(F)F)c1Cl (single isomer, unassigned) [drawing 102, N-(2-azabicyclo[2.2.2]octan-1-yl(phenyl)methyl)-2-chloro-3-(trifluoromethyl)benzamide]
99.7 | O=C(NC(c1ccccc1)C12CCC(CC1)CN2)c1cccc(Cl)c1Cl (single isomer, unassigned) [N-(2-azabicyclo[2.2.2]octan-1-yl(phenyl)methyl)-2,3-dichlorobenzamide]
198 | O=C(NC(c1ccccc1)C12CCC(CC1)CN2)c1cccc(C(F)(F)F)c1Cl (single isomer, unassigned) [drawing 103, N-(2-azabicyclo[2.2.2]octan-1-yl(phenyl)methyl)-2-chloro-3-(trifluoromethyl)benzamide]
258 | O=C(NC(c1ccccc1)C12CCC(CC1)CN2)c1cccc(C(F)(F)F)c1Cl (stereo not shown) [N-(2-azabicyclo[2.2.2]octan-1-yl(phenyl)methyl)-2-chloro-3-(trifluoromethyl)benzamide]

Same assay, conditions: compounds of Formula Ib, read at 2 h

IC50 [nM] | SMILES
92 | CN1CC2CCC1(C(NC(=O)c1cccc(C(F)(F)F)c1F)c1ccccc1)CC2 (stereo not shown) [2-fluoro-N-((2-methyl-2-azabicyclo[2.2.2]octan-1-yl)(phenyl)methyl)-3-(trifluoromethyl)benzamide]
4.74 | COc1cccc(Cl)c1C(=O)N[C@H](c1ccccc1)C12CCC(CC1)CN2C [(R)-2-chloro-6-methoxy-N-((2-methyl-2-azabicyclo[2.2.2]octan-1-yl)(phenyl)methyl)benzamide,citric acid salt]
65.1 | CN1CC2CCC1(C(NC(=O)c1ccccc1Cl)c1ccccc1)CC2 (stereo not shown) [2-chloro-N-((2-methyl-2-azabicyclo[2.2.2]octan-1-yl)(phenyl)methyl)benzamide]
2.95 | CSc1ccccc1C(=O)NC(c1ccccc1)C12CCC(CC1)CN2C (stereo not shown) [N-((2-methyl-2-azabicyclo[2.2.2]octan-1-yl)(phenyl)methyl)-2-(methylthio)benzamide]
10.5 | CN1CC2CCC1(C(NC(=O)c1ccccc1Br)c1ccccc1)CC2 (stereo not shown) [2-bromo-N-((2-methyl-2-azabicyclo[2.2.2]octan-1-yl)(phenyl)methyl)benzamide]
8.45 | CN1CC2CCC1(C(NC(=O)c1ccc(F)cc1Cl)c1ccccc1)CC2 (stereo not shown) [drawing 37, 2-chloro-4-fluoro-N-((2-methyl-2-azabicyclo[2.2.2]octan-1-yl)(phenyl)methyl)benzamide]
2.3 | Cc1cccc(Cl)c1C(=O)NC(c1ccccc1)C12CCC(CC1)CN2C (stereo not shown) [2-chloro-6-methyl-N-((2-methyl-2-azabicyclo[2.2.2]octan-1-yl)(phenyl)methyl)benzamide]
3.48 | Cc1ccccc1C(=O)NC(c1ccccc1)C12CCC(CC1)CN2C (stereo not shown) [2-methyl-N-((2-methyl-2-azabicyclo[2.2.2]octan-1-yl)(phenyl)methyl)benzamide]
2.6 | Cc1c(F)cccc1C(=O)NC(c1ccccc1)C12CCC(CC1)CN2C (stereo not shown) [3-fluoro-2-methyl-N-((2-methyl-2-azabicyclo[2.2.2]octan-1-yl)(phenyl)methyl)benzamide]
3.15 | COc1cccc(Cl)c1C(=O)NC(c1ccccc1)C12CCC(CC1)CN2C (stereo not shown) [2-chloro-6-methoxy-N-((2-methyl-2-azabicyclo[2.2.2]octan-1-yl)(phenyl)methyl)benzamide]
0.965 | CCc1ccccc1C(=O)N[C@H](c1ccccc1)C12CCC(CC1)CN2C [(R)-2-ethyl-N-((2-methyl-2-azabicyclo[2.2.2]octan-1-yl)(phenyl)methyl)benzamide,citric acid salt]
< 2.34 | Cc1c(C(=O)NC(c2ccccc2)C23CCC(CC2)CN3C)cccc1C(F)(F)F (stereo not shown) [2-methyl-N-((2-methyl-2-azabicyclo[2.2.2]octan-1-yl)(phenyl)methyl)-3-(trifluoromethyl)benzamide]
1.34 | Cc1cccc(Br)c1C(=O)NC(c1ccccc1)C12CCC(CC1)CN2C (stereo not shown) [2-bromo-6-methyl-N-((2-methyl-2-azabicyclo[2.2.2]octan-1-yl)(phenyl)methyl)benzamide]
25.8 | CN1CC2CCC1(C(NC(=O)c1cccc(F)c1Br)c1ccccc1)CC2 (stereo not shown) [2-bromo-3-fluoro-N-((2-methyl-2-azabicyclo[2.2.2]octan-1-yl)(phenyl)methyl)benzamide]
6.45 | CN1CC2CCC1(C(NC(=O)c1ccc(Cl)cc1Cl)c1ccccc1)CC2 (stereo not shown) [2,4-dichloro-N-((2-methyl-2-azabicyclo[2.2.2]octan-1-yl)(phenyl)methyl)benzamide]
86.2 | CN1CC2CCC1(C(NC(=O)c1cc(C(F)(F)F)ccc1C(F)(F)F)c1ccccc1)CC2 (stereo not shown) [N-((2-methyl-2-azabicyclo[2.2.2]octan-1-yl)(phenyl)methyl)-2,5-bis(trifluoromethyl)benzamide]
12.1 | CN1CC2CCC1(C(NC(=O)c1c(Cl)cccc1Br)c1ccccc1)CC2 (stereo not shown) [2-bromo-6-chloro-N-((2-methyl-2-azabicyclo[2.2.2]octan-1-yl)(phenyl)methyl)benzamide]
336 | CCOc1ccccc1C(=O)N[C@H](c1ccccc1)C12CCC(CC1)CN2C [(R)-2-ethoxy-N-((2-methyl-2-azabicyclo[2.2.2]octan-1-yl)(phenyl)methyl)benzamide,citric acid salt]
7.71 | CN1CC2CCC1(C(NC(=O)c1ccc(F)cc1Cl)c1ccccc1)CC2 [drawing 58, (R)-2-chloro-4-fluoro-N-((2-methyl-2-azabicyclo[2.2.2]octan-1-yl)(phenyl)methyl)benzamide,citric acid salt]
65 | CN1CC2CCC1(C(NC(=O)c1c(F)cccc1C(F)(F)F)c1ccccc1)CC2 (stereo not shown) [2-fluoro-N-((2-methyl-2-azabicyclo[2.2.2]octan-1-yl)(phenyl)methyl)-6-(trifluoromethyl)benzamide]
5.9 | CN1CC2CCC1([C@H](NC(=O)c1cccc(F)c1Cl)c1ccccc1)CC2 [(R)-2-chloro-3-fluoro-N-((2-methyl-2-azabicyclo[2.2.2]octan-1-yl)(phenyl)methyl)benzamide,citric acid salt]
13.6 | CN1CC2CCC1(C(NC(=O)c1ccccc1OC(F)(F)F)c1ccccc1)CC2 (stereo not shown) [N-((2-methyl-2-azabicyclo[2.2.2]octan-1-yl)(phenyl)methyl)-2-(trifluoromethoxy)benzamide]
32.7 | COc1ccc(Cl)c(C(=O)NC(c2ccccc2)C23CCC(CC2)CN3C)c1 (stereo not shown) [2-chloro-5-methoxy-N-((2-methyl-2-azabicyclo[2.2.2]octan-1-yl)(phenyl)methyl)benzamide]
11.1 | CN1CC2CCC1([C@H](NC(=O)c1ccc(Cl)cc1Cl)c1ccccc1)CC2 [(R)-2,4-dichloro-N-((2-methyl-2-azabicyclo[2.2.2]octan-1-yl)(phenyl)methyl)benzamide,citric acid salt]
12 | CN1CC2CCC1(C(NC(=O)c1cccc(F)c1Cl)c1ccccc1)CC2 (stereo not shown) [2-chloro-3-fluoro-N-((2-methyl-2-azabicyclo[2.2.2]octan-1-yl)(phenyl)methyl)benzamide]
49.6 | CN1CC2CCC1([C@H](NC(=O)c1ccccc1C(F)(F)F)c1ccccc1)CC2 [(R)-N-((2-methyl-2-azabicyclo[2.2.2]octan-1-yl)(phenyl)methyl)-2-(trifluoromethyl)benzamide,citric acid salt]
